The source of these data is patent publication US5888993A, “Vanadium compounds in the treatment of elevated blood sugar levels” (The University of British Columbia, priority 1997, dated 1999).

Series [1] relates to diabetic rats. In words: Glucose time course after gavage of ammonium bis(maltolato)dioxovanadate in STZ diabetic rats. The format is in vivo, male Wistar rats. The following applies: 0.55 mmoles/kg gavage. The procedure: Six male Wistar rats, weighing 175-200 gm, were made diabetic by the intravenous injection of 60 mg/kg of streptozotocin dissolved in 0.9% saline via the tail vein. Seven days after the injection the rats were diabetic having an average glucose concentration of 24.20 mM. 0.55 mmoles/kg of the ammonium salt of bis(maltolato)dioxovanadate suspended in 3% acacia was gavaged into the rats. Blood was collected and analyzed for glucose as a function of time.

In series [2] the test system is diabetic rats. In words: Comparative testing, plasma glucose after oral gavage in STZ diabetic rats. It counts as in vivo, male wistar rats. The following applies: oral gavage 1 mmol/kg. On the procedure: Diabetes was induced in all animals by a single intravenous injection of streptozotocin (STZ) 60 mg/kg in 0.9% NaCl via the tail vein. Three days after STZ injection, blood was collected from the tail by nicking the tail tip and expressing the blood into heparinized capillary tubes. Blood was centrifuged at 20,000 g for 10 minutes to separate the plasma. Glucose analysis was done immediately on the plasma sample using a Boehringer Mannheim kit. […] One week after STZ injection animals were randomly divided into 3 pairs of rats. Each pair of rats received by oral gavage 1 mmol/kg of BMOV or VO(Sal)2 or VO(acac)2, suspended in 3% acacia.

Series [3] is described as follows: log p (partition coefficient). The format is physicochemical.
In series [4] the test system is diabetic rats. In words: Comparison of BMOV and vanadyl kojate, acute time course of plasma glucose, rats made diabetic with STZ. It counts as in vivo, rat. More on the design: plasma glucose level: unit not given here. The procedure: Using BMOV and Vanadyl Kojate as prepared in Examples 1 and 2 above, the relative efficacy of the two compounds was assessed using rats made diabetic with STZ. Again the animals were divided into responder and non-responder groups. For a 0.063 mmol V/kg ip injection, BMOV gave a 50:50 split between responder and non-responder groups whereas for vanadyl kojate the ratio was 60:40. On oral gavage of 0.55 mmol V/kg the responder:non-responder ratios were 50:50 and 57:43 respectively (n=10). However over a 12 day test period, there was a 100% response in terms of blood glucose reduction for diabetic rats receiving vanadyl kojate orally.

A further series deals with Wistar Kyoto (WKY) rats. In words: Blood pressure study with vanadyl sulphate, normotensive Wistar Kyoto rats. The following applies: for changes in normotensive animals, prevention: WKYV; for effect in Wistar Kyoto rats, reversal: WKYV1, treatment from week 11. It counts as in vivo, rat. The procedure:
(§1) The insulin resistant spontaneously hypertensive rat was used as the experiment model and the vanadyl form of vanadium as the experimental intervention. […] Rats, procured at 4 weeks of age, were divided
(§2) into 4 groups: SHR (untreated), SHRV (treated), WKY (untreated), WKYV (treated). Chronic vanadyl sulfate treatment (0.75 mg/ml ad libitum in the drinking water) was started on the SHRV and WKYV groups at 5 weeks of age. After week 8, when hypertension becomes fully manifest in the SHR, weekly measurements of plasma insulin and systolic blood pressure (tail cuff method) were done on all four groups.
(§3) At week 11, the untreated control SHR and WKY groups from the prevention study were further subdivided and half the animals in each group were started on oral vanadyl sulfate treatment. This was done to observe the reversal effects of vanadyl, if any, after the SHR had become hypertensive. […] A direct blood pressure reading done in all groups at termination validated the earlier indirect measurements. Vanadyl sulfate prevented as well as reversed hypertention in the hyperinsulinemic spontaneously hypertensive rat, a model that closely resembles human essential hypertension. Besides establishing further the role that insulin resistance/hyperinsulinemia may play in the development of high blood pressure, this study also indicated a possible therapeutic role for vanadyl sulfate in hypertensive, hyperinsulinemic subjects.

For series [5] the following is noted: in vivo; cited from earlier work.
The test system of series [6] is spontaneously hypertensive rats (SHR). In words: Blood pressure reduction by vanadyl sulphate, spontaneously hypertensive rats. The format is in vivo, rat. The following applies: for systolic blood pressure / hypertension, prevention: 75-125 mg/kg/day in drinking water. The procedure: as §1, §2, §3
Series [7] deals with rats made diabetic with streptozoticin (STZ). The note with it: oral / drinking water; cited from earlier work.
For series [8] the following is noted: in vivo; cited from earlier work. This is another data set of the same source.
The test system of another series is STZ-diabetic rats. In words: Comparison of BMOV and ETHYLBMOV, plasma glucose and insulin in STZ-diabetic rats. The format is in vivo, rat. The note with it: 0.6 mmol kg^-1, one oral gavage, 24 hour period. The procedure:
Animal studies were conducted in STZ-diabetic rats comparing doses of 0.6 mmol kg^-1 for VO(ma)2 (BMOV) and VO(ema)2 (ETHYLVMOV). FIGS. 8 and 9 respectively show plasma glucose and plasma insulin values recorded over 24 hour periods after one oral gavage of a water solution of either BMOV or ETHYLBMOV, in order to compare their efficacies.

The mark [9] stands for this setting: 0 h, individual rats (two per drug).
[10] abbreviates: SHRV, 75-125 mg/kg/day, weeks 8-12.

Several values for one entry are separate records, joined by “and”; a condition that tells them apart may be missing. Equal entries are not always repeated.

As to `Cc1occc(=O)c1[O-].Cc1occc(=O)c1[O-].[NH4+].[O]=[V+]=[O]` [Ammonium bis(maltolato)dioxovanadate], the “reduction of elevated glucose levels, in words” value with diabetic rats [1] is “effective in reducing the elevated glucose levels”. Also, the Glucose is reported as 24.2 mM in the series on diabetic rats [1] (0 h); 24.4 mM in the series on diabetic rats [1] (1 h); 25.5 mM with diabetic rats [1] (2 h); 24.7 mM with diabetic rats [1] (4 h); 22.3 mM with diabetic rats [1] (8 h); 20.1 mM with diabetic rats [1] (12 h). In addition, the Glucose in the series on diabetic rats [1] (24 h) is reported as 14.9 mM.
Consider `O=Cc1ccccc1[O-].O=Cc1ccccc1[O-].[O]=[V+2]` [VO(Sal)2, Bis(salicylaldehyde)oxovanadium(IV)], for which the plasma glucose level in the series on diabetic rats [2] (setting [9]) was 21.09 mM and 21.12 mM; in the series with diabetic rats [2] (2 h, individual rats), 22.77 mM and 22.31 mM; with diabetic rats [2] (4 h, individual rats), 20.18 mM and 21.74 mM; with diabetic rats [2] (6 h, individual rats), 20.67 mM and 21.85 mM; in the series on diabetic rats [2] (8 h, individual rats), 21.57 mM and 21.59 mM; with diabetic rats [2] (12 h, individual rats), 19.24 mM and 19.74 mM. Also, in the series with diabetic rats [2] (24 h, individual rats), the plasma glucose level is 18.73 mM and 18.64 mM.
For `CC(=O)/C=C(/C)[O-].CC(=O)/C=C(/C)[O-].[O]=[V+2]` [VO(acac)2, Bis(acetylacetonate)oxovanadium(IV)], the plasma glucose level in the series on diabetic rats [2] (setting [9]) was 23.87 mM and 22.74 mM; in the series with diabetic rats [2] (2 h, individual rats) it was 22.91 mM and 24.5 mM; in the series on diabetic rats [2] (4 h, individual rats), 22.37 mM and 22.89 mM; in the series on diabetic rats [2] (6 h, individual rats), 23.96 mM and 22.94 mM; in the series with diabetic rats [2] (8 h, individual rats) it was 27.19 mM and 23.65 mM; in the series on diabetic rats [2] (12 h, individual rats) it was 19.13 mM and 18.86 mM. The plasma glucose level in the series with diabetic rats [2] (24 h, individual rats) is listed as 2.43 mM. The death result with diabetic rats [2] (24 h, rat 5) is reported as “dead”.
`[O]=[V-2]12([O]C3=COC(CO)=CC3=[O+]1)[O]C1=COC(CO)=CC1=[O+]2` [vanadyl kojate, Bis(kojato)oxovanadium(IV)]: in series [3], the log p is given as 0.012. The plasma glucose level in the series with diabetic rats [4] (i.p. 0.063 mmol/kg, nonresponders (DTN), 0 h) is given as 20.86; in the series on diabetic rats [4] (i.p. 0.063 mmol/kg, nonresponders (DTN), 1 h), 18.55; in the series on diabetic rats [4] (i.p. 0.063 mmol/kg, nonresponders (DTN), 2 h), 16.62; with diabetic rats [4] (i.p. 0.063 mmol/kg, nonresponders (DTN), 4 h), 17.37; in the series on diabetic rats [4] (i.p. 0.063 mmol/kg, nonresponders (DTN), 6 h), 16.62; with diabetic rats [4] (i.p. 0.063 mmol/kg, nonresponders (DTN), 8 h), 15.49. The plasma glucose level in the series on diabetic rats [4] (i.p. 0.063 mmol/kg, nonresponders (DTN), 12 h) stood at 18.24; in the series with diabetic rats [4] (i.p. 0.063 mmol/kg, nonresponders (DTN), 24 h) it was 18.77; with diabetic rats [4] (i.p. 0.063 mmol/kg, responders (DTR), 0 h) it was 17.94; in the series on diabetic rats [4] (i.p. 0.063 mmol/kg, responders (DTR), 1 h) it was 14.75; with diabetic rats [4] (i.p. 0.063 mmol/kg, responders (DTR), 2 h), 10.17; with diabetic rats [4] (i.p. 0.063 mmol/kg, responders (DTR), 4 h), 9.26. In addition, the plasma glucose level in the series with diabetic rats [4] (i.p. 0.063 mmol/kg, responders (DTR), 6 h) was found to be 8.73; in the series with diabetic rats [4] (i.p. 0.063 mmol/kg, responders (DTR), 8 h) it was 7.4; in the series with diabetic rats [4] (i.p. 0.063 mmol/kg, responders (DTR), 12 h) it was 10.37; in the series with diabetic rats [4] (i.p. 0.063 mmol/kg, responders (DTR), 24 h) it was 13.28; in the series with diabetic rats [4] (oral gavage 0.55 mmol/kg, nonresponders (DTN), 0 h), 23.08; with diabetic rats [4] (oral gavage 0.55 mmol/kg, nonresponders (DTN), 1 h), 21.18. The plasma glucose level is on record as 21.51 in the series on diabetic rats [4] (oral gavage 0.55 mmol/kg, nonresponders (DTN), 2 h); 20.57 in the series with diabetic rats [4] (oral gavage 0.55 mmol/kg, nonresponders (DTN), 4 h); 18.2 with diabetic rats [4] (oral gavage 0.55 mmol/kg, nonresponders (DTN), 6 h); 19.06 in the series with diabetic rats [4] (oral gavage 0.55 mmol/kg, nonresponders (DTN), 8 h); 18.81 in the series on diabetic rats [4] (oral gavage 0.55 mmol/kg, nonresponders (DTN), 12 h); 25.0 in the series with diabetic rats [4] (oral gavage 0.55 mmol/kg, nonresponders (DTN), 24 h). Besides, the plasma glucose level amounted to 15.75 in the series on diabetic rats [4] (oral gavage 0.55 mmol/kg, responders (DTR), 0 h); 12.5 in the series with diabetic rats [4] (oral gavage 0.55 mmol/kg, responders (DTR), 1 h); 10.1 in the series on diabetic rats [4] (oral gavage 0.55 mmol/kg, responders (DTR), 2 h); 7.96 with diabetic rats [4] (oral gavage 0.55 mmol/kg, responders (DTR), 4 h); 6.6 with diabetic rats [4] (oral gavage 0.55 mmol/kg, responders (DTR), 6 h); 6.87 in the series on diabetic rats [4] (oral gavage 0.55 mmol/kg, responders (DTR), 8 h). In addition, the plasma glucose level in the series on diabetic rats [4] (oral gavage 0.55 mmol/kg, responders (DTR), 12 h) was 6.01; in the series on diabetic rats [4] (oral gavage 0.55 mmol/kg, responders (DTR), 24 h), 6.74. Moreover, the “food and fluid demand” value in the series with diabetic rats [4] (oral, 12 day test period) is on record as “significantly reduced”. The “response in terms of blood glucose reduction” value in the series on diabetic rats [4] (oral, 12 day test period) is reported as 100%.
On to `O=S(=O)([O-])[O-].[O]=[V+2]` [vanadyl sulfate], for which, in the series on Wistar Kyoto (WKY) rats, the “changes in normotensive animals, prevention” value is given as “No changes were seen” and the “effect in Wistar Kyoto rats, reversal” value is “no effect”. Also, in the series with Wistar Kyoto (WKY) rats (listed as vanadyl), the “effect in Wistar Kyoto rats, reversal” value is recorded as “no effect is observed” and the “changes in normotensive animals, prevention” value is “No change is observed”. Besides, in the series with Wistar Kyoto (WKY) rats (normal animals), the “adverse effect on normal animals (hypotension)” value is on record as “no adverse effect on normal animals”. Besides, the toxicity result in [5] is on record as “less toxic than the vanadate form of vanadium”. For the same molecule, in [6] (SHRV1, treatment from week 11), the “hypertension / blood pressure, reversal” value is reported as “reversed hypertension” and the “plasma insulin, reversal” value is recorded as “lowering their plasma insulin to control values”. In addition, in [6] (SHRV1, treatment from week 11, listed as vanadyl), the “hypertension / blood pressure, reversal” value is given as “reduce the blood pressure”. For the same molecule, in series [6] (SHRV, weeks 8-12), the “systolic blood pressure / hypertension, prevention” value is “lowered both plasma insulin and systolic blood pressure”. In addition, the “systolic blood pressure / hypertension, prevention” value in [6] (SHRV, weeks 8-12, listed as vanadyl) is listed as “prevents the onset of hypertension”. Moreover, in series [6] (setting [10]), the plasma glucose levels result was “without causing any change in the plasma glucose levels”; the “plasma insulin, prevention” value is “lowered both plasma insulin and systolic blood pressure”. Besides, the “gastrointestinal, renal or hepatic toxicity” value in [6] (treated animals, 75-125 mg/kg/day, entire experimental period) is reported as “No gastrointestinal, renal or hepatic toxicity”. Besides, in series [7], the blood glucose result was “lowers blood glucose and blood lipids”; the “cardiac performance / secondary complications of diabetes” value is “prevents secondary complications of diabetes such as cataracts and cardiac dysfunction”. Moreover, the “absorption from the gastrointestinal tract” value in series [8] is recorded as “poorly absorbed”.
For the molecule “Bis(ethylmaltolato)oxovanadium(IV) [ETHYLBMOV]”, in the series on STZ-diabetic rats, the “plasma glucose, difference BMOV vs ETHYLBMOV” value is reported as “statistically insignificant” and the “plasma insulin, difference BMOV vs ETHYLBMOV” value was “statistically insignificant”.
